According to ChEMBL document CHEMBL1201862, “PubChem BioAssay data set” (2004):
Activity calls are given as the source filed them.

What was measured:
[1] = molecular target: DNA damage-inducible transcript 3 protein (Mus musculus, UniProt P35639); format: functional, Cricetulus griseus
[2] = molecular target: Sphingosine 1-phosphate receptor 3 (Homo sapiens, UniProt Q99500); test: Dose Response Cell-Based Assay for Agonists of the Sphingosine 1-Phosphate Receptor 3 (S1P3): Purchased Analogues. [Related pubchem assays: 373, 439 ]; format: functional
Sphingosine 1-phosphate receptor 3, sequence (Q99500 whole entry): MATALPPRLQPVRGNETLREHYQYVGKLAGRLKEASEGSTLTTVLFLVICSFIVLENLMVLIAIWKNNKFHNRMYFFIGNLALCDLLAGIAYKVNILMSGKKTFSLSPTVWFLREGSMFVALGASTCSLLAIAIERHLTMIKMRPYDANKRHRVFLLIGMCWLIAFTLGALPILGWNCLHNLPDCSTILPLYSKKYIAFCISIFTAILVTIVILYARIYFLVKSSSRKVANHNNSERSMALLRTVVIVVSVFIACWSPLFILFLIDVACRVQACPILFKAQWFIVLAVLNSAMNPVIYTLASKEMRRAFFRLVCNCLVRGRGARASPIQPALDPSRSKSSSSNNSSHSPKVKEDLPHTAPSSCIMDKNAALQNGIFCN

[3] = molecular target: Sphingosine 1-phosphate receptor 1 (Homo sapiens, UniProt P21453); test: Dose Response Cell-Based Assay for Agonists of the Sphingosine 1-Phosphate Receptor 1 (S1P1): Purchased Analogues. [Related pubchem assays: 1192, 373, 439 ]; format: functional
Sphingosine 1-phosphate receptor 1, sequence (P21453 whole entry): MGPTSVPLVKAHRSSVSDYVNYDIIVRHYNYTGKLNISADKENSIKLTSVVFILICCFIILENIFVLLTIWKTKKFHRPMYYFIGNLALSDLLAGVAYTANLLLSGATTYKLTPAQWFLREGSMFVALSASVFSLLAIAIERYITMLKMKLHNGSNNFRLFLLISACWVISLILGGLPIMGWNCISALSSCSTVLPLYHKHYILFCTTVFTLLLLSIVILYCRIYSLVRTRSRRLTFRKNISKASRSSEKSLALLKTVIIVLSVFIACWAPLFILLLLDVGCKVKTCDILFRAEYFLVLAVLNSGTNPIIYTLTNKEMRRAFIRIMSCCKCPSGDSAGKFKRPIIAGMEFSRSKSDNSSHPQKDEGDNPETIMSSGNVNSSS

[4] = molecular target: T1, Sphingosine 1-phosphate receptor 2 (Homo sapiens, UniProt O95136); test: Late-stage fluorescence-based dose-response cell-based counterscreen assay to identify agonists of the Sphingosine 1-Phosphate Receptor 3 (S1P3): Sphingosine 1-Phosphate Receptor 2 (S1P2) agonist assay.; format: functional
T1 sequence (O95136 whole entry): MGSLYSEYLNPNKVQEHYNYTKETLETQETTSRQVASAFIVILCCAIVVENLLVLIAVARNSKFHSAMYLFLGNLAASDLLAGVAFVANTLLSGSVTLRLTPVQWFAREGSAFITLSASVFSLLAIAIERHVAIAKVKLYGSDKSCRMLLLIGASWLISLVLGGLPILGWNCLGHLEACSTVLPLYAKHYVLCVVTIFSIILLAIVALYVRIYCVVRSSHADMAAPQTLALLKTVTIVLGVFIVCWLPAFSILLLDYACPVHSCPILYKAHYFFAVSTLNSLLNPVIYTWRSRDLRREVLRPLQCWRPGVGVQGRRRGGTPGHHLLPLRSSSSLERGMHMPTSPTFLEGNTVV

[5] = molecular target: X-box-binding protein 1 (Homo sapiens, UniProt P17861); format: functional, Cricetulus griseus;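 note: confirmatory dose-response counter-screen serving a CHOP assay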
X-box-binding protein 1, sequence (P17861 whole entry): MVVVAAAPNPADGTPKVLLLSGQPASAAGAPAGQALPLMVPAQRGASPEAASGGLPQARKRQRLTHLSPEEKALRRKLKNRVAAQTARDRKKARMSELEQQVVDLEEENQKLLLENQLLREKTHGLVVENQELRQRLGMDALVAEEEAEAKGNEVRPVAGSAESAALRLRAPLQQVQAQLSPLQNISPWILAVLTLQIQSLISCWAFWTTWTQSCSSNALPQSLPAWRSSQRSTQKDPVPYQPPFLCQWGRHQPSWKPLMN

[6] = molecular target: Sphingosine 1-phosphate receptor 4 (Homo sapiens, UniProt O95977); test: Late-stage fluorescence-based dose-response cell-based counterscreen assay to identify agonists of the Sphingosine 1-Phosphate Receptor 3 (S1P3): Sphingosine 1-Phosphate Receptor 4 (S1P4) agonist assay.; format: functional
Sphingosine 1-phosphate receptor 4, sequence (O95977 whole entry): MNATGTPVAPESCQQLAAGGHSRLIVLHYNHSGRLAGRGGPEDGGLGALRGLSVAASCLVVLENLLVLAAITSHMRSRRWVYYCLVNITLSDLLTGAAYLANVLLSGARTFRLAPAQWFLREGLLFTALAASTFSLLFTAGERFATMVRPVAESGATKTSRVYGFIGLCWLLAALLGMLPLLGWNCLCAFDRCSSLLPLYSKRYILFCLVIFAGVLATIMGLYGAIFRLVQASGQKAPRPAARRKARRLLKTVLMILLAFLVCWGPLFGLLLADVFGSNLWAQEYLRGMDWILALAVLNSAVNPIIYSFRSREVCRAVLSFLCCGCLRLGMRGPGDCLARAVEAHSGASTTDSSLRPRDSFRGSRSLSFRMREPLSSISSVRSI

[7] = molecular target: T1, Sphingosine 1-phosphate receptor 2; test: Dose Response Cell-Based Assay for Agonists of the Sphingosine 1-Phosphate Receptor 2 (S1P2): Purchased Analogues. [Related pubchem assays: 1192, 373, 439 ]; format: functional
[8] = molecular target: T2, Melanin-concentrating hormone receptor 1 (Homo sapiens, UniProt Q99705); test: Late-stage fluorescence-based counterscreen for antagonists of the G-protein coupled receptor 7 (GPR7): cell-based dose response assay to identify antagonists of the melanin-concentrating hormone receptor 1 (MCHR1) Set 6.; format: functional
T2 sequence (Q99705 whole entry): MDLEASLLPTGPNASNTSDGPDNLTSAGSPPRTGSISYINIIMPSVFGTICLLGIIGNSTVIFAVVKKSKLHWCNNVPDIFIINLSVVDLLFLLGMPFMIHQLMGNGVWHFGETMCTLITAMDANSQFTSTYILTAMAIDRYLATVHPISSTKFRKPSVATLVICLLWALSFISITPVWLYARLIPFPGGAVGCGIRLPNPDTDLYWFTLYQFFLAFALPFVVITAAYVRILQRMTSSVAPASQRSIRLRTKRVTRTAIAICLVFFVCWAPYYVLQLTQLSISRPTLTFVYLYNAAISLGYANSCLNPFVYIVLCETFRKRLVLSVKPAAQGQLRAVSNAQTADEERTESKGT

[9] = molecular target: T3, Neuropeptides B/W receptor type 1 (Homo sapiens, UniProt P48145); test: GPR7 antagonist potency, late-stage follow-up, cell-based, fluorescence, dose response, set 6 (AID 588583); format: functional
T3 sequence (P48145 whole entry): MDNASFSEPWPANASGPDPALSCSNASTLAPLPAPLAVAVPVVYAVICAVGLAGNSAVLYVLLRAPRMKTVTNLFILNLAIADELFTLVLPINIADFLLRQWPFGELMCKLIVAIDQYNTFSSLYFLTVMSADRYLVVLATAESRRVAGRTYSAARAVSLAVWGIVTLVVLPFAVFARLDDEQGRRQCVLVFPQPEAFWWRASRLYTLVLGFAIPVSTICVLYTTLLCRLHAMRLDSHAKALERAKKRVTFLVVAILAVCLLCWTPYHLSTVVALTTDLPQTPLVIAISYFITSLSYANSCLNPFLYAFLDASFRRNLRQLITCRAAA

[10] = molecular target: T3, Neuropeptides B/W receptor type 1; test: GPR7 antagonist potency, late-stage follow-up, cell-based, fluorescence, dose response, set 5 (AID 588566); format: functional
[11] = molecular target: T2, Melanin-concentrating hormone receptor 1; test: Late-stage fluorescence-based counterscreen for antagonists of the G-protein coupled receptor 7 (GPR7): cell-based dose response assay to identify antagonists of the melanin-concentrating hormone receptor 1 (MCHR1) Set 5.; format: functional
[12] = molecular target: Latent membrane protein 1 (Human herpesvirus 4 (strain B95-8), UniProt P03230); test: TES1-eGFP NF-kB reporter inhibition versus Tet-On dsRED, dose response, selectivity assay for LMP1 NF-kB inhibitor project, imaging, HEK293T, dual-color eGFP/dsRED, cherry-picks (AID 588398); format: functional, cell-based
Latent membrane protein 1, sequence (P03230 whole entry): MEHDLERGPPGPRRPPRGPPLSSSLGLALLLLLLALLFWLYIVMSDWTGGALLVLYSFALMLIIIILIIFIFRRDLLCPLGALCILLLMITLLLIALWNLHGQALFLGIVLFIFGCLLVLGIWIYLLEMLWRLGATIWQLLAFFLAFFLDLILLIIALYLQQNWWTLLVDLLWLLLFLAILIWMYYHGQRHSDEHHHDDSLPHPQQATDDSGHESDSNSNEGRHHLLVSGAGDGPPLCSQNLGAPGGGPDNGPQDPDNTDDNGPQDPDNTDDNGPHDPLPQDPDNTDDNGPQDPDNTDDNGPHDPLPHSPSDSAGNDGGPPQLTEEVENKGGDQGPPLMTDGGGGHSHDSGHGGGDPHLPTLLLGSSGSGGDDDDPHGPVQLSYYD

[13] = molecular target: DNA dC->dU-editing enzyme APOBEC-3G (Homo sapiens, UniProt Q9HC16); test: APOBEC3G deaminase inhibitors, SAR follow-up, biochemical, fluorescence, single-stranded DNA substrate (AID 602136); format: functional; conditions: read-out: IC50_Mean
DNA dC->dU-editing enzyme APOBEC-3G, sequence (Q9HC16 whole entry): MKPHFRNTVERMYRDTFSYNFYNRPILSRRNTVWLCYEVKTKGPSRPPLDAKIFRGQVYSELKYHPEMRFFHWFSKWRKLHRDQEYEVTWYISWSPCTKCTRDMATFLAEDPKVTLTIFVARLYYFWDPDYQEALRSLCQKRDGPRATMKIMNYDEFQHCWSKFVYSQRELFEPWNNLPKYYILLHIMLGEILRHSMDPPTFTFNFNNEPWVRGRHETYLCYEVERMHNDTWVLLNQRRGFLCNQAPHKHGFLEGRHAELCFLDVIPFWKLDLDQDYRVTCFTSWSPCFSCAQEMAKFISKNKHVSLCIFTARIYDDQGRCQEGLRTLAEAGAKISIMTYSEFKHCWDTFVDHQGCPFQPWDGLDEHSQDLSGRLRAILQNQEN

[14] = molecular target: DNA dC->dU-editing enzyme APOBEC-3A (Homo sapiens, UniProt P31941); test: SAR analysis of small molecule inhibitors of APOBEC3A DNA Deaminase via a fluorescence-based single-stranded DNA deaminase assay.; format: functional; conditions: read-out: IC50_Mean
DNA dC->dU-editing enzyme APOBEC-3A, sequence (P31941 whole entry): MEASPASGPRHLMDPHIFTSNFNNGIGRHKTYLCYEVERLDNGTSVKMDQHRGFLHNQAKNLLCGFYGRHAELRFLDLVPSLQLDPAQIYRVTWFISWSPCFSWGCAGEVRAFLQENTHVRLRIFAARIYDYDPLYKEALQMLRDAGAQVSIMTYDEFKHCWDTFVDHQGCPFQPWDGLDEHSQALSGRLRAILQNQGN

[15] = molecular target: T4, Sentrin-specific protease 6 (Homo sapiens, UniProt Q9GZR1); test: SENP6 protease inhibitors, SAR follow-up, biochemical, luminescence, set 2 (AID 588598); format: functional
T4 sequence (Q9GZR1 whole entry): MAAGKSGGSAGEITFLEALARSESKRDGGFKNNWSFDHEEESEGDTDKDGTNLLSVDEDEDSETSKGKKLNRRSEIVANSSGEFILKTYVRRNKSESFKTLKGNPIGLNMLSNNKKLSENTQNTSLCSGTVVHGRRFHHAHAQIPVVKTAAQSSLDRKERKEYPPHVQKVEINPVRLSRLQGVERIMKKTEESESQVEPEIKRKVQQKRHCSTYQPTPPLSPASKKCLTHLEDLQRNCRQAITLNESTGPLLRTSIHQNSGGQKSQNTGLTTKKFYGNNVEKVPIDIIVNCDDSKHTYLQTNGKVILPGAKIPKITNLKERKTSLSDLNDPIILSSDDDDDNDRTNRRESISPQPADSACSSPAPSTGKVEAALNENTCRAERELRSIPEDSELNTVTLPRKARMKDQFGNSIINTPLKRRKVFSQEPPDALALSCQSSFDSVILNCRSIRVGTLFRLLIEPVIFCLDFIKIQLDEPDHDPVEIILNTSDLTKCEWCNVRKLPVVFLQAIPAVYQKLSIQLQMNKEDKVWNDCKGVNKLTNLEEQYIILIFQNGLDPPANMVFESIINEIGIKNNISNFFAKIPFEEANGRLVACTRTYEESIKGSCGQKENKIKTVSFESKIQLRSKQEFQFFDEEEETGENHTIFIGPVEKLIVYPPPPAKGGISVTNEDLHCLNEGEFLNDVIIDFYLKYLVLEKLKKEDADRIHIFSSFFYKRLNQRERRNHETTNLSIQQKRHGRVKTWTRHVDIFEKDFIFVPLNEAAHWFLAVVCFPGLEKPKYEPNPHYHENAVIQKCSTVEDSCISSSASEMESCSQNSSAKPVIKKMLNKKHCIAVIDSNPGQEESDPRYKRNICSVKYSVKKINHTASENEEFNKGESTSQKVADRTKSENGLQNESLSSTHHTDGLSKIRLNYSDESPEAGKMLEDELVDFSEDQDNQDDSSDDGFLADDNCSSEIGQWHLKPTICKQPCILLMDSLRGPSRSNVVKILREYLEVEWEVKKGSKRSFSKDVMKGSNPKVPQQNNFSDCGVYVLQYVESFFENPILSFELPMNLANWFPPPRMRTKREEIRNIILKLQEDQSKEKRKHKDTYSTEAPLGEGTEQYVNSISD

[16] = molecular target: T5, Sentrin-specific protease 8 (Homo sapiens, UniProt Q96LD8); test: SENP8 protease inhibitors, SAR follow-up, biochemical, luminescence, set 2 (AID 588601); format: functional
T5 sequence (Q96LD8 whole entry): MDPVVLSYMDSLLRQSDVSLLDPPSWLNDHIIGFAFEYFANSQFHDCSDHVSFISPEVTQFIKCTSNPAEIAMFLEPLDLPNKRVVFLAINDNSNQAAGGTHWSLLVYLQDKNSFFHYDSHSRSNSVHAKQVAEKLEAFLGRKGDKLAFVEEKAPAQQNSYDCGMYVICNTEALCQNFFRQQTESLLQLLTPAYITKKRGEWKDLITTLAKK

[17] = Luminescence Cell-Based Dose Retest to Confirm Inhibitors of Cancer Stem Cells. [Related pubchem assays (depositor defined):AID2717, AID2721]; format: functional; conditions: Homo sapiens
[18] = molecular target: T6, Sentrin-specific protease 7 (Homo sapiens, UniProt Q9BQF6); test: SENP7 protease inhibitors, SAR follow-up, biochemical, luminescence, set 2 (AID 588600); format: functional
T6 sequence (Q9BQF6 whole entry): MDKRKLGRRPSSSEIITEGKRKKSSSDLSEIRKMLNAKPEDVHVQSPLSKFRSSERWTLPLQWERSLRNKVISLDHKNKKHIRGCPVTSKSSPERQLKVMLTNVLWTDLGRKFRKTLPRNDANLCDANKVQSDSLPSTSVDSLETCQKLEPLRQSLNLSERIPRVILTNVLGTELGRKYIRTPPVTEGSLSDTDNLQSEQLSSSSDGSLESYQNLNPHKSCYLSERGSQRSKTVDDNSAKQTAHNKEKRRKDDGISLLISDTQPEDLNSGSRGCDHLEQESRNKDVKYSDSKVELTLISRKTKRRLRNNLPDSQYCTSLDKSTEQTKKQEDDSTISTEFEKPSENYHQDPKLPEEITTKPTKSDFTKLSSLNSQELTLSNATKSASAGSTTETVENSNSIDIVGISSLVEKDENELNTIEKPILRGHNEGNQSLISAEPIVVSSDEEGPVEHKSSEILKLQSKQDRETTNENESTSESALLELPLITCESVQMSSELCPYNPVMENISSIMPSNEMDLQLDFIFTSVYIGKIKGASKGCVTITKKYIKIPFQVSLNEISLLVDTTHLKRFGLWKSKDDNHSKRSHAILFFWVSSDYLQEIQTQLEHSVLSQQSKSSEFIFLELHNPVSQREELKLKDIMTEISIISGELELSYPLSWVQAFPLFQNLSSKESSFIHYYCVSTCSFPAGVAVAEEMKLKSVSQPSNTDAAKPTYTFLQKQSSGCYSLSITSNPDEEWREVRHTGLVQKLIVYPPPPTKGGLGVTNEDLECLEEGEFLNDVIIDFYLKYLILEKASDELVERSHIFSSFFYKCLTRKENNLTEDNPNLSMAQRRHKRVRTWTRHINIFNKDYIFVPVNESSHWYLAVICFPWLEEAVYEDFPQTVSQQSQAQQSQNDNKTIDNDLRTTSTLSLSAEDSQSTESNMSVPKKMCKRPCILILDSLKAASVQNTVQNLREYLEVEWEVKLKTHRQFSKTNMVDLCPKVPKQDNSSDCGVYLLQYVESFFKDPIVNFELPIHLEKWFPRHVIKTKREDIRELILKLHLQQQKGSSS

[19] = molecular target: Neurotensin receptor type 1 (Homo sapiens, UniProt P30989); format: functional;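 note: Image-based confirmatory dose-response assay measuring agonist activity at NTR1; NTR1-expressing U2OS osteosarcoma cells imaged for beta-arrestin GFP spot formation; agonist potency where compounds increase beta-arrestin recruitment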
Neurotensin receptor type 1, sequence (P30989 whole entry): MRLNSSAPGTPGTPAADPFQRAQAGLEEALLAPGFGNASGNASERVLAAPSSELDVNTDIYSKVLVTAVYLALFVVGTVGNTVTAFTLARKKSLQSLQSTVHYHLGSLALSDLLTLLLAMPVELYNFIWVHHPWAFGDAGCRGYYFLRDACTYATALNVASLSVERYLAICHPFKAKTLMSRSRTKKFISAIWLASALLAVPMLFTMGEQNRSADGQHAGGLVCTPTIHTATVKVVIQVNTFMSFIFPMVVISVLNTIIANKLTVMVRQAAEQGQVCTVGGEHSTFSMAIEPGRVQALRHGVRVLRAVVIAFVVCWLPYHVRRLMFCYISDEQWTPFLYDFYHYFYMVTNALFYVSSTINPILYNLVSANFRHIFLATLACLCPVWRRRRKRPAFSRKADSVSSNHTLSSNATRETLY

[20] = molecular target: T7, Caspase-3 (Homo sapiens, UniProt P42574); test: caspase-3 inhibitors as off-family protease, SAR follow-up, selectivity assay for SENP protease inhibitor project, biochemical, luminescence, set 2 (AID 588599); format: functional
T7 sequence (P42574 whole entry): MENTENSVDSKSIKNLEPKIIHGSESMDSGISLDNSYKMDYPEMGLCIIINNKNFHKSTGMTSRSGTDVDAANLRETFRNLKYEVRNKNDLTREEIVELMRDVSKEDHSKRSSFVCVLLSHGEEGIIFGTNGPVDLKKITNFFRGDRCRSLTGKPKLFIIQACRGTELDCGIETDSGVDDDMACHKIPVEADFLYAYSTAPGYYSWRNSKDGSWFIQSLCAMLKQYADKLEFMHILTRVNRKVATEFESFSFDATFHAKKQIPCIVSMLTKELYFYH

[21] = molecular target: Melanocortin receptor 4 (Homo sapiens, UniProt P32245); format: functional, cell-based;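 note: Cell-based assay with luminescence read-out, confirmatory dose-response testing for agonist activity of biased ligands at MC4R; human U2OS cells with tagged receptor and beta-arrestin; potency of agonists that increase receptor coupling to beta-arrestin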
Melanocortin receptor 4, sequence (P32245 whole entry): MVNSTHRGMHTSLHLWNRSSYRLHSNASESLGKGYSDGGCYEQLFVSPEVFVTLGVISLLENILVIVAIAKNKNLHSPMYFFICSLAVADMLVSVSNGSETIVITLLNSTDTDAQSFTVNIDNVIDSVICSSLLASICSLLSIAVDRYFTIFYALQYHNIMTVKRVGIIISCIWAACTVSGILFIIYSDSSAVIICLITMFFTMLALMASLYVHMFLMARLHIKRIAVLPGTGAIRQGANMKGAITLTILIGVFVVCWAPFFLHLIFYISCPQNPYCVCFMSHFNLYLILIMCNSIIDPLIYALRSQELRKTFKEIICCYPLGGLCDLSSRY

[22] = HEp-2 cell cytotoxicity, dose response, cytotoxicity control for RSV inhibitor project, HTS (AID 2410); format: functional; conditions: human respiratory syncytial virus

DNA damage-inducible transcript 3 protein, sequence (P35639 whole entry): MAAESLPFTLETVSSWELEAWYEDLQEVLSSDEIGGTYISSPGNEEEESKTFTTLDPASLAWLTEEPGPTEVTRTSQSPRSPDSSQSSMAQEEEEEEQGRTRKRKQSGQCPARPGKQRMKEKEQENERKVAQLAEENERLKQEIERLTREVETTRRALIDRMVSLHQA

**Q.** With `CCCc1cc(C(=O)N(C2CCCCC2)C2CCCCC2)no1` as the compound, how does the “Absolute IC50 (CHOP)” value [1] read?
**A.** 10 µM

**Q.** What about the EC50 [2] of the same compound?
**A.** 0.243 µM (active)

**Q.** What about the EC50 [3] of the same compound?
**A.** > 50 µM (not active)

**Q.** And the EC50 [4]?
**A.** > 50 µM (inactive)

**Q.** And the “Absolute IC50 (XBP1)” value [5]?
**A.** 10 µM

**Q.** And the EC50 [6]?
**A.** > 50 µM (inactive)

**Q.** What about the EC50 [7] of the same compound?
**A.** > 10 µM (not active)

**Q.** For `N#CC(c1c(F)cccc1Cl)c1c(Cl)cnn(Cc2cccc3ccccc23)c1=O` (configuration not stated), which IC50 [8] is on record?
**A.** 0.706 µM (active)

**Q.** And the IC50 [9]?
**A.** 0.706 µM (active)

**Q.** Which results are given for `CCOc1ccc(C(C#N)c2c(Cl)cnn(Cc3cccc4ccccc34)c2=O)cc1` (configuration not stated)?
**A.** IC50 [10]: 0.234 µM (active); IC50 [11]: > 20 µM (inactive)

**Q.** Which AC50 [12] does the source give for `CCN1C(=O)[C@@H]2[C@@H](c3ccc(-c4ccc(Cl)c(Cl)c4)cc3)N3CCC[C@@]3(C(=O)OC)[C@@H]2C1=O` here?
**A.** 70.2 µM (active)

**Q.** Which results are given for `O=C(CSc1nc2cccnc2[nH]1)Nc1cccc(Br)c1`?
**A.** IC50 [13]: > 99 µM (inactive); IC50 [14]: > 99 µM (inactive)

**Q.** Which IC50 [15] does the source give for `O=C(N/N=C/c1c[nH]c2ccccc12)C1CC1(c1ccccc1)c1ccccc1` (configuration not stated) here?
**A.** > 99 µM (inactive)

**Q.** And the IC50 [16]?
**A.** > 99 µM (inactive)

**Q.** What about the AC50 [17] of the same compound?
**A.** 4.64 µM (active)

**Q.** What about the IC50 [18] of the same compound?
**A.** > 99 µM (inactive)

**Q.** What about the EC50 [19] of the same compound?
**A.** 12.3 µM (active)

**Q.** What about the IC50 [20] of the same compound?
**A.** > 99 µM (inactive)

**Q.** And the EC50 [21]?
**A.** > 89.2 µM (inactive)

**Q.** What about the CC50 [22] of the same compound?
**A.** 16 µM (active)
